Reference: patent US20230390273A1, “4-PHENYL-TETRAHYDROPYRIDINE DERIVATIVES FOR TREATING HEARING DISEASES” (CILCARE DEV, priority 2021, published 2023)
Structures can show the parent of a compound that is named as a salt. Where two headings read alike, the source gives them in different places. Blank lines part the entries; values can stand above or below the molecule they belong to.

Tests used:
[1] = Plasma and inner ear fluid exposure after single oral gavage (Example 1); format: in vivo, male Wistar rats; settings: for concentration at 1 h / concentration at 2 h / concentration at 4 h / concentration at 6 h / concentration at 8 h / concentration at 24 h: male, Wistar; for concentration at 1 h: T0 + 1 hour; for concentration at 2 h: T0 + 2 hours; for concentration at 4 h: T0 + 4 hours; for concentration at 6 h: T0 + 6 hours; for concentration at 8 h: T0 + 8 hours
Experimental: Two compositions were prepared: composition A and composition B.
Composition A is an aqueous solution comprising: • 6 mg/mL (free base equivalent) of fumarate salt of 1-[2-(4-biphenylyl)ethyl]-4-(3-trifluoromethylphenyl)-1,2,3,6-tetrahydropyridine (=paliroden fumarate), and • 0.6% w/v of methylcellulose with respect to the total volume of the aqueous solution.
Composition B is an aqueous solution comprising: • 4 mg/mL (free base equivalent) of hydrochloride salt of 1-[2-(2-naphthyl)ethyl]-4-(3-trifluoromethylphenyl)-1,2,3,6-tetrahydropyridine (=xaliproden hydrochloride), and • 10% w/v of arabic gum with respect to the total mass of the aqueous solution.
Composition A and composition B were administered to male Wistar rats (5 animals per active agent and timepoint), as described below.
Composition A was administered to 15 male Wistar rats, once, at time TO, via oral injection by gavage, at a dose of 5 mL of composition A per kilogram of the animal, i.e. a dose of 30 mg of paliroden fumarate per kilogram of the animal. The concentration of paliroden in rats plasma and in rats inner ear fluid (IEF) was measured at 6 timepoints, 5 rats being used at each timepoint for the concentration measurements (in the plasma and optionally in the IEF). The timepoints are T0+1 hour, T0+2 hours, T0+4 hours, T0+6 hours, T0+8 hours and T0+24 hours for the concentration measurement in the rats plasma. The timepoints are T0+2 hours, T0+4 hours and T0+24 hours for the concentration measurement in the rats inner ear fluid, as part of a terminal procedure including cochlea sampling and inner ear fluids collection from both ears of the rats. Bioanalytical methods were validated in both matrices (lithium heparin plasma and inner ear fluid) with a range of 0.25 to 500 ng/mL in plasma and 0.25 to 100 ng/mL in inner ear fluids.
Composition B was administered to 15 others male Wistar rats, once, at time T0, via oral injection by gavage, at a dose of 5 mL of composition B per kilogram of the animal, i.e. a dose of 20 mg of xaliproden hydrochloride per kilogram of the animal. The concentration of xaliproden in rats plasma and in rats inner ear fluid (IEF) was measured at 6 timepoints, 5 rats being used at each timepoint for the concentrations measurements (in the plasma and optionally in the IEF). The timepoints are T0+1 hour, T0+2 hours, T0+4 hours, T0+6 hours, T0+8 hours and T0+24 hours for the concentration measurement in the rats plasma. The timepoints are T0+2 hours, T0+4 hours and T0+24 hours for the concentration measurement in the rats inner ear fluid, as part of a terminal procedure including cochlea sampling and inner ear fluids collection from both ears of the rats. Bioanalytical methods were validated in both matrices (lithium heparin plasma and inner ear fluid) with a range of 0.25 to 500 ng/mL in plasma and 0.25 to 500 ng/mL in inner ear fluids.

[2] = Plasma and inner ear fluid exposure after single trans-tympanic injection in lipid-based mucoadhesive solution (Example 3); format: in vivo, male Wistar rats; settings: for concentration at 1 h: T0 + 1 hour; for concentration at 24 h: T0 + 24 hours; for High concentrations rapidly reached in the IEF (molar) / High concentrations rapidly reached in the inner ear fluid: trans-tympanic injection; for High concentrations rapidly reached in the IEF (molar): approximate conversion; for High concentrations rapidly reached in the inner ear fluid: summary
Experimental: Composition 7P and composition 7X as described in example 2 were administered to male Wistar rats (5 animals per active agent and timepoint), as described below.
At time T0, 30 μL of composition 7P were administered to 15 rats, in a single ear via trans-tympanic injection. The dose of paliroden fumarate that has been administered is thus of 243 μg in one ear of each rat.
At time T0, 30 μL of composition 7X were administered to 15 other rats, in a single ear via trans-tympanic injection. The dose of xaliproden hydrochloride that has been administered is thus of 181.2 μg in one ear of each rat.
For the 15 rats that have received composition 7P and for the 15 rats that have received composition 7X, plasmatic and inner ear expositions were determined via blood and cochlea terminal sampling in order to achieve lithium-heparin plasma and inner ear fluid preparation, at T+1 hour, T+24 hours and T+168 hours. Bioanalytical methods were validated in both matrices (lithium heparin plasma and inner ear fluid) with a range of 0.2 to 815 ng/mL for paliroden (fumarate salt) and 0.2 to 763 ng/mL for xaliproden (hydrochloride salt).

[3] = plasma, rat, single oral 30 mg/kg, read-out: Concentration of paliroden (fumarate salt), Plasma, Mean
[4] = rat inner ear fluid, single oral 30 mg/kg, read-out: Concentration of paliroden (fumarate salt), IEF, Mean
[5] = male, Wistar, other: trans-tympanic injection, rat inner ear fluid, trans-tympanic 243 μg, read-out: Concentration of paliroden (fumarate salt), IEF, Mean
[6] = male, Wistar, plasma, other: trans-tympanic injection, rat, trans-tympanic 243 μg one ear, read-out: Concentration of paliroden (fumarate salt), Plasma, Mean
[7] = plasma, rat, single oral 20 mg/kg, read-out: Concentration of xaliproden (hydrochloride salt), Plasma, Mean
[8] = rat inner ear fluid, single oral 20 mg/kg, read-out: Concentration of xaliproden (hydrochloride salt), IEF, Mean
[9] = male, Wistar, other: trans-tympanic injection, rat inner ear fluid, trans-tympanic 181.2 μg, read-out: Concentration of xaliproden (hydrochloride salt), IEF, Mean
[10] = male, Wistar, plasma, other: trans-tympanic injection, rat, trans-tympanic 181.2 μg one ear, read-out: Concentration of xaliproden (hydrochloride salt), Plasma, Mean

- concentration at 1 h [1, 3]: 35 ng/mL
- concentration at 2 h [1, 3]: 106 ng/mL
- concentration at 4 h [1, 3]: 3.1 ng/mL
- concentration at 6 h [1, 3]: 4.4 ng/mL
- concentration at 8 h [1, 3]: 1.6 ng/mL
- concentration at 24 h ([1]; plasma, rat, single oral 30 mg/kg, T0 + 24 hours, read-out: Concentration of paliroden (fumarate salt), Plasma, Mean): 1.7 ng/mL
- concentration at 2 h [1, 4]: 10.9 ng/mL
- concentration at 4 h [1, 4]: 2.6 ng/mL
- Concentration of paliroden (fumarate salt), IEF, Mean ([1]; rat inner ear fluid, single oral 30 mg/kg, T0 + 24 hours): BLQ
- concentration at 1 h [2, 5]: 5100 ng/mL
- concentration at 24 h [2, 5]: 3.2 ng/mL
- concentration at 1 h [2, 6]: 0.9 ng/mL
- concentration at 24 h [2, 6]: 1.7 ng/mL
- Concentration of paliroden (fumarate salt), IEF, Mean ([2]; rat inner ear fluid, trans-tympanic 243 μg, T0 + 168 hours): BLQ
- Concentration of paliroden (fumarate salt), Plasma, Mean ([2]; rat, trans-tympanic 243 μg one ear, T0 + 168 hours): BLQ
- High concentrations rapidly reached in the IEF (molar) ([2]; rat): approximately 10 μM
- High concentrations rapidly reached in the inner ear fluid ([2]; rat): approximately 5000 ng/mL
Structure (SMILES): FC(F)(F)c1cccc(C2=CCN(CCc3ccc(-c4ccccc4)cc3)CC2)c1 [paliroden (fumarate salt), 1-[2-(4-biphenylyl)ethyl]-4-(3-trifluoromethylphenyl)-1,2,3,6-tetrahydropyridine]

- concentration at 1 h [1, 7]: 44.1 ng/mL
- concentration at 2 h [1, 7]: 58 ng/mL
- concentration at 4 h [1, 7]: 25.1 ng/mL
- concentration at 6 h [1, 7]: 28.4 ng/mL
- concentration at 8 h [1, 7]: 23.4 ng/mL
- concentration at 24 h ([1]; plasma, rat, single oral 20 mg/kg, T0 + 24 hours, read-out: Concentration of xaliproden (hydrochloride salt), Plasma, Mean): 44.1 ng/mL
- concentration at 2 h [1, 8]: 19.4 ng/mL
- concentration at 4 h [1, 8]: 21.7 ng/mL
- concentration at 24 h ([1]; rat inner ear fluid, single oral 20 mg/kg, T0 + 24 hours, read-out: Concentration of xaliproden (hydrochloride salt), IEF, Mean): 16 ng/mL
- concentration at 1 h [2, 9]: 2510 ng/mL
- concentration at 24 h [2, 9]: 74.3 ng/mL
- concentration at 1 h [2, 10]: 4.4 ng/mL
- concentration at 24 h [2, 10]: 5.2 ng/mL
- concentration at 168 h ([2]; male, Wistar, plasma, other: trans-tympanic injection, rat, trans-tympanic 181.2 μg one ear, T0 + 168 hours, read-out: Concentration of xaliproden (hydrochloride salt), Plasma, Mean): 0.5 ng/mL
- Concentration of xaliproden (hydrochloride salt), IEF, Mean ([2]; rat inner ear fluid, trans-tympanic 181.2 μg, T0 + 168 hours): BLQ
- High concentrations rapidly reached in the IEF (molar) ([2]; rat): ~5 µM
- High concentrations rapidly reached in the inner ear fluid ([2]; rat): ~2500 ng/mL
Structure (SMILES): FC(F)(F)c1cccc(C2=CCN(CCc3ccc4ccccc4c3)CC2)c1 [xaliproden (hydrochloride salt), 1-[2-(2-naphthyl)ethyl]-4-(3-trifluoromethylphenyl)-1,2,3,6-tetrahydropyridine]
